Assay results reported in ChEMBL document CHEMBL1687756 (Antimicrob Agents Chemother, 2010).

Experiments:
[1] = Tmax in Beagle dog at 5 mg/kg administered intramuscularly after 184 days; format: ADME, organism-based, Canis lupus familiaris; design: dose 5 mg/kg, route intramuscular; details: in vivo, im
[2] = Ratio of drug level in lymph node mandibular to plasma in Beagle dog at 5 mg/kg, sc after 6 months; format: ADME, organism-based, Canis lupus familiaris; design: dose 5 mg/kg, route subcutaneous
[3] = Ratio of drug level in lymph node axillar to plasma in Beagle dog at 5 mg/kg, sc after 6 months; format: ADME, organism-based, Canis lupus familiaris; design: dose 5 mg/kg, route subcutaneous; details: axillary lymph node/plasma
[4] = Plasma concentration in female Beagle dog at 400 mg/kg administered intramuscularly after 1 month; format: ADME, organism-based, Canis lupus familiaris; design: dose 400 mg/kg, route intramuscular; details: im, read-out: Drug uptake
[5] = Ratio of drug level in thymus to plasma in male Beagle dog at 200 mg/kg administered intramuscularly after 1 month; format: ADME, organism-based, Canis lupus familiaris; design: dose 200 mg/kg, route intramuscular; details: im
[6] = Drug level in Beagle dog muscle at non-injected site at 5 mg/kg, sc after 6 months; format: ADME, organism-based, Canis lupus familiaris, Muscle tissue; design: dose 5 mg/kg, route subcutaneous; details: read-out: Drug uptake
Canis familiaris [7] = assay: Toxicity in Beagle dog assessed as irritation at 20 mg/kg, sc after 3 months; format: organism-based, Canis lupus familiaris; design: dose 20 mg/kg, route subcutaneous; details: in vivo, 2191.5 h
[8] = Drug level in male Beagle dog spleen at 400 mg/kg administered intramuscularly after 3 months; format: ADME, organism-based, Canis lupus familiaris; design: dose 400 mg/kg, route intramuscular; details: im, read-out: Drug uptake
[9] = Plasma concentration in female Beagle dog at 400 mg/kg, sc after 1 month; format: ADME, organism-based, Canis lupus familiaris; design: dose 400 mg/kg, route subcutaneous; details: read-out: Drug uptake
[10] = Drug level in Beagle dog skin at injected site at 5 mg/kg administered intramuscularly after 6 months; format: ADME, organism-based, Canis lupus familiaris, Zone of skin; design: dose 5 mg/kg, route intramuscular; details: im, read-out: Drug uptake
[11] = Ratio of drug level in thymus to plasma in male Beagle dog at 400 mg/kg administered intramuscularly after 1 month; format: ADME, organism-based, Canis lupus familiaris; design: dose 400 mg/kg, route intramuscular; details: im
Canis familiaris [12] = assay: Tmax in Beagle dog at 5 mg/kg, sc after 184 days; format: ADME, organism-based, Canis lupus familiaris; design: dose 5 mg/kg, route subcutaneous; details: in vivo, 4416 h
[13] = Drug level in Beagle dog lymph node iliac at 5 mg/kg administered intramuscularly after 3 months; format: ADME, organism-based, Canis lupus familiaris; design: dose 5 mg/kg, route intramuscular; details: im, read-out: Drug uptake
[14] = Drug level in Beagle dog lymph node mandibular at 5 mg/kg, sc after 3 months; format: ADME, organism-based, Canis lupus familiaris; design: dose 5 mg/kg, route subcutaneous; details: read-out: Drug uptake
[15] = Cmax in female dog at 200 mg administered intramuscularly after 85 days; details: in vivo, im
[16] = Plasma concentration in male Beagle dog at 400 mg/kg administered intramuscularly after 1 month; format: ADME, organism-based, Canis lupus familiaris; design: dose 400 mg/kg, route intramuscular; details: im
[17] = AUC (0 to last) in Beagle dog at 5 mg/kg administered intramuscularly after 176 days; format: ADME, organism-based, Canis lupus familiaris; design: dose 5 mg/kg, route intramuscular, time 0 - last; details: plasma, im
[18] = Ratio of drug level in lymph node popliteal to plasma in Beagle dog at 5 mg/kg administered intramuscularly after 1 month; format: ADME, organism-based, Canis lupus familiaris; design: dose 5 mg/kg, route intramuscular; details: im
[19] = Drug level in Beagle dog liver at 5 mg/kg, sc after 6 months; format: ADME, organism-based, Canis lupus familiaris; design: dose 5 mg/kg, route subcutaneous; details: read-out: Drug uptake
[20] = Drug level in male Beagle dog spleen at 200 mg/kg, sc after 3 months; format: ADME, organism-based, Canis lupus familiaris; design: dose 200 mg/kg, route subcutaneous; details: read-out: Drug uptake
[21] = Drug level in female Beagle dog spleen at 200 mg/kg administered intramuscularly after 3 months; format: ADME, organism-based, Canis lupus familiaris; design: dose 200 mg/kg, route intramuscular; details: im, read-out: Drug uptake
[22] = Plasma concentration in female Beagle dog at 200 mg/kg, sc after 3 months; format: ADME, organism-based, Canis lupus familiaris; design: dose 200 mg/kg, route subcutaneous
[23] = Ratio of drug level in spleen to plasma in female Beagle dog at 400 mg/kg, sc after 3 months; format: ADME, organism-based, Canis lupus familiaris; design: dose 400 mg/kg, route subcutaneous
[24] = AUC (0 to last) in Beagle dog at 5 mg/kg, sc after 184 days; format: ADME, organism-based, Canis lupus familiaris; design: time 0 - last, dose 5 mg/kg, route subcutaneous; details: plasma
[25] = Cmax in male dog at 200 mg, sc after 29 days; details: in vivo
[26] = Cmax in female dog at 200 mg, sc after 29 days; details: in vivo
[27] = Ratio of drug level in thymus to plasma in Beagle dog at 5 mg/kg, sc after 6 months; format: ADME, organism-based, Canis lupus familiaris; design: dose 5 mg/kg, route subcutaneous
[28] = Plasma concentration in female Beagle dog at 400 mg/kg administered intramuscularly after 3 months; format: ADME, organism-based, Canis lupus familiaris; design: dose 400 mg/kg, route intramuscular; details: im

Cc1cc(/C=C/C#N)cc(C)c1Nc1ccnc(Nc2ccc(C#N)cc2)n1 [RILPIVIRINE]
Tmax [1]: 24 h
Kp at 4383 h [2]: 6.1
Kp at 4383 h [3]: 6.7
concentration at 730.5 h [4]: 118 ng/g
Kp at 730.5 h [5]: 3.2
concentration at 4383 h [6]: < 5 ng/g
Activity (Canis familiaris [7]): Non-toxic
concentration at 2191.5 h [8]: 63.5 ng/g
concentration at 730.5 h [9]: 227 ng/g
concentration at 4383 h [10]: 9.5 ng/g
Kp at 730.5 h [11]: 4
Tmax (Canis familiaris [12]): 144 h
concentration at 2191.5 h [13]: 15.3 ng/g
concentration at 2191.5 h [14]: 13.1 ng/g
Cmax [15]: 1140 ng/mL
concentration at 730.5 h [16]: 158 ng/mL
AUC(0-t) at 4224 h [17]: 23200 ng·h/mL
Kp at 730.5 h [18]: 574
concentration at 4383 h [19]: 31.1 ng/g
concentration at 2191.5 h [20]: 36.2 ng/g
concentration at 2191.5 h [21]: 22.1 ng/g
concentration at 2191.5 h [22]: 26.8 ng/mL
Kp at 2191.5 h [23]: 1.9
AUC(0-t) at 4416 h [24]: 24400 ng·h/mL
Cmax [25]: 119 ng/mL
Cmax [26]: 185 ng/mL
Kp at 4383 h [27]: 16
concentration at 2191.5 h [28]: 20.3 ng/mL
